Measurements: patent US20250026734A1 (priority 2021, published 2025)
pEC50: −log10 of the molar value. Where “and” joins values, the source holds several entries; their conditions need not be identical. Equal entries are not always repeated. Where two headings read alike, the source gives them in different places.

Test system: SARS-CoV-2 strains
Assay type: cell-based

CCCCn1c(=O)c2ccc(NCCO)cc2c2cc(C(O)(C(F)(F)F)C(F)(F)F)ccc21 [NR-31]
pEC50 (read-out: EC50): 5.29 and 5.46 and 5.45 and 5.28 and 5.47 and 5.39 and 5.44
pEC50 (read-out: EC50 (inhibits cell death induced by SARS-CoV-2 infection by 50%)): 5.36
